pIC50: −log10 of the molar value.
How the values were obtained:
Human KIF18A (1-376aa) = molecular target: T1, Human KIF18A (1-376aa) (Homo sapiens, UniProt Q8NI77); assay: KIF18A enzyme activity assay (ADP-Glo); format: biochemical; conditions: microtubule 50 μg/mL, ATP (Km 70 μM), room temperature, 15 min, read-out: KIF18A inhibitory activity IC50
T1 construct: Human KIF18A (1-376aa) protease used in the experiments; purchased Shanghai Panchao Biotechnology Co., Ltd
T1 sequence (Q8NI77 1-376): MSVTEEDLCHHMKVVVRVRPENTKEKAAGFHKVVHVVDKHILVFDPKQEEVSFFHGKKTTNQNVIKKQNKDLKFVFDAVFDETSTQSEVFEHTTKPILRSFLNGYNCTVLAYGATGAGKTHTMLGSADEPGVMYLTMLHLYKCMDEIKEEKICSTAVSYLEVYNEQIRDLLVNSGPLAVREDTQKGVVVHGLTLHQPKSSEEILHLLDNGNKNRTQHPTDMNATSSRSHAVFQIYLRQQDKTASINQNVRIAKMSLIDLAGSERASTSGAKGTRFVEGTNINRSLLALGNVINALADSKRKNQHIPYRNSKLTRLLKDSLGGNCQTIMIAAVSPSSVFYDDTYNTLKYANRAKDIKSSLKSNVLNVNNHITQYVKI
Procedure: Test Example 1: KIF18A Enzyme Activity Assay
Based on the ADP-Glo™ Kinase Assay, the ADP amount generated in the reaction was detected to reflect the enzyme activity of KIF18A.
Human KIF18A (1-376aa) […] used in the experiments, expressed by Shanghai Panchao Biotechnology Co., Ltd., was stored at −80 °C (no more than 5 freeze-thaw cycles).
The assay kit (ADP-Glo™ Kinase Assay) was purchased from Promega (Cat. No. V9101) and stored at −30 °C. The kit detects the enzyme activity by measuring ADP generated in enzyme reaction. The KIF18A enzyme and ATP generate ADP. The remaining ATP in this reaction is consumed by the ADP-Glo reagent, while the ADP generated by the KIF18A enzyme reaction is converted back to ATP by the assay reagent. The ATP then reacts with luciferin in the presence of Ultra-Glo™ luciferase, producing luminescence. The luminescent signal is positively correlated with the activity of the KIF18A enzyme.
Compounds were each subjected to 3-fold serial dilution starting from 10 μM to obtain 10 concentration points. The compounds and pure DMSO (control) were pipetted into wells of a 384-well plate using an Echo instrument, and the total volume of compound and DMSO was 100 nL; sample concentrations of gradient dilution were obtained by the instrument based on different ratios. Preparation of a KIF18A enzyme reaction buffer: […], 10 mM MgCl2, 0.01% Pluronic F-68, 1 μM Taxol, and 50 μg/mL Microtubule. KIF18A and the enzyme reaction buffer were mixed, and then the mixed solution was added to the 384-well plate and incubated at room temperature for 15 min. ATP (Km 70 μM) was then added to the mixed solution, and the mixed solution was incubated at room temperature for 15 min. 10 μL of ADP-Glo™ Reagent was well mixed with 10 μL of the mixed solution, and the mixture was incubated at room temperature for 40 min. Finally, 20 μL of ADP-Glo™ Detection Reagent was added, and the mixture was incubated at room temperature for 30 min. The chemiluminescent signal in each well was measured using an Envision plate reader (PerkinElmer, emission wavelength: 400-700 nm). In the experiment, 1 column of wells with no compound and no enzyme (chemiluminescence value was taken as [RLU]background) and 1 column of wells with enzyme but no compound (chemiluminescence value was taken as [RLU]enzyme) were provided. The chemiluminescence value of the compound adding group was taken as [RLU]cpd. The inhibition rate of the compound on […] was calculated according to the following equation: inhibition rate (%)=([RLU]enzyme−[RLU]cpd)/([RLU]enzyme−[RLU]background)×100%, and the inhibitory activity IC50 value of the compound on the enzyme activity was calculated using a four-parameter Logistic Model method. In the following equation, x represents the logarithmic form of the concentration of compound, and f (x) represents an effect value (inhibition rate of enzyme activity at the concentration): F(x)=(A+((B−A)/(1+((C/x)^D)))). A. B, C, and D are four parameters.

OVCAR3 cells = assay: Inhibition of proliferation of OVCAR-3 cells (Cell-Titer Glo); format: cell-based; conditions: Homo sapiens, OVCAR-3, 72 h, 3 days, 1000 cells/well
Excerpt: Test Example 2. Test on Inhibition of Proliferation of OVCAR-3 Cells by Compounds of Present Disclosure
Cell and material: The human ovarian cancer cell line OVCAR3 was purchased from ATCC (Cat. No. HTB-161™), RPMI 1640 medium (Gibco #A1049101), penicillin-streptomycin (Gibco #15140122), and 0.25% Trypsin-EDTA (Gibco #25200056) were purchased from Gibco (U.S.), bovine insulin (Yeasen #40107ES60) was purchased from Yeasen, 384-well plates (Corning #CLS3765) was purchased from Corning (U.S.), and Cell-Titer Glo reagent (Promega #G7568) was purchased from Promega (U.S.).
Cell culture: OVCAR3 cells were cultured in RPMI 1640 complete medium (RPMI 1640 medium containing 20% fetal bovine serum, […] bovine insulin, and 1% penicillin-streptomycin) in an incubator (37 °C, 5% CO2), and the cells could be used in experiments when in the logarithmic growth phase.
Cell proliferation activity test: The Cell-Titer Glo reagent was used to test the compound for inhibition of proliferation of the OVCAR3 cell strain. The compound formulated with DMSO and pure DMSO (control) were each added to a 384-well plate using an Echo instrument; the compound was subjected to 3-fold serial dilution starting from 30 μM to obtain 11 concentration points, and the volume of the compound or DMSO added was 100 nL.
OVCAR3 cells were digested and resuspended in RPMI 1640 complete medium, and the suspension was added to a 384-well plate (1000 cells/50 μL/well) to be well mixed with the compound. The mixture was incubated in an incubator (37 °C, 5% CO2) for 3 days. The Cell-Titer Glo reagent was added at 25 µL/well, and the resulting mixture was well mixed by shaking and then incubated for 10 min. The Cell-Titer Glo readings were measured with a Multimode Plate Reader (brand: PerkinElmer; model: SIC-PV-018).
A negative control group (Bottom) was set, and the negative control group was medium wells with 0.2% DMSO added and was defined as 100% proliferation inhibition; the positive control group (Top) was OVCAR3 cell wells with 0.2% DMSO added.
The percent proliferation inhibition (% Inhibition) was calculated, and the curves were fit using the four-parameter equation, Y=Bottom+(Top−Bottom)/(1+(IC50/X)^HillSlope), to obtain the proliferation inhibition IC50 of the compound. • Percent inhibition: % Inhibition=(1−(Signal−Bottom)/(Top−Bottom))×100%. • Signal: Cell-Titer Glo reading of wells with compound added; • Bottom: Cell-Titer Glo reading of negative control wells; • Top: Cell-Titer Glo reading of positive control wells.

SMILES | pIC50 (Human KIF18A (1-376aa)) | pIC50 (OVCAR3 cells)
O=C(Nc1cc2c(c(N3CCC(F)(F)CC3)c1)OCC2)c1ccc(NS(=O)(=O)CCO)cc1N1CCC2(CC1)CC2 [Compound 28] | > 6.70 | 8.44
O=C(Nc1cc2c(c(N3CCC(F)(F)CC3)c1)CC2)c1ccc(NS(=O)(=O)CCO)cc1N1CCC2(CC1)CC2 [Compound 103] | > 6.70 | 7.83
O=C(Nc1cccc2c1nc1n2CCOC1)c1ccc(NS(=O)(=O)CCO)cc1N1CCC2(CC1)CC2 [Compound 34] | > 6.70 | 7.64
CC1(C)Cc2cc(NC(=O)c3ccc(NS(=O)(=O)CCO)cc3N3CCC4(CC3)CC4)cc(N3CCC(F)(F)CC3)c2O1 [Compound 82] | > 6.70 | 7.00
O=C(Nc1cccc2c1nc1n2CCCOC1)c1ccc(NS(=O)(=O)CCO)cc1N1CCC2(CC1)CC2 [Compound 54] | > 6.70 | 7.68
O=C(Nc1cccc2c1nc1n2CC2CC2C1)c1ccc(NS(=O)(=O)CCO)cc1N1CCC2(CC1)CC2 (centres unmarked) [Compound 70] | > 6.70 | 7.03
O=C(Nc1cc2c(c(N3CCC(F)(F)CC3)c1)OCCC2)c1ccc(NS(=O)(=O)CCO)cc1N1CCC2(CC1)CC2 [Compound 60] | > 6.70 | 7.96
O=C(Nc1cc2c(c3c1nc1n3CCCC1)OCC2)c1ccc(NS(=O)(=O)CCO)cc1N1CCC2(CC1)CC2 [Compound 42] | > 6.70 | 7.58
CCNC(=O)c1ccc(NC(=O)c2ccc(NS(=O)(=O)CCO)cc2N2CCC3(CC2)CC3)c2nc3n(c12)CCCCC3 [Compound 113] | > 6.70 | 8.27
CC1Cn2c(nc3c(NC(=O)c4ccc(NS(=O)(=O)CCO)cc4N4CCC5(CC4)CC5)cccc32)CO1 (centres unmarked) [Compound 55] | > 6.70 | 7.76
O=C(Nc1cc2c(c(N3CCC(F)(F)CC3)c1)COC2)c1ccc(NS(=O)(=O)CCO)cc1N1CCC2(CC1)CC2 [Compound 101] | > 6.70 | 8.04
O=C(Nc1cccc2c3n(nc12)CCCCC3)c1ccc(NS(=O)(=O)CCO)cc1N1CCC2(CC1)CC2 [Compound 78] | > 6.70 | 7.34
O=C(Nc1cccc2c1nc1n2CCCCCC1)c1ccc(NS(=O)(=O)CCO)cc1N1CCC2(CC1)CC2 [Compound 61] | > 6.70 | 7.11
N#Cc1ccc(NC(=O)c2ccc(NS(=O)(=O)CCO)cc2N2CCC3(CC2)CC3)c2nc3n(c12)CC1C3C1(F)F (centres unmarked) [Compound 110] | > 6.70 | 7.95
O=C(Nc1cccc2c1nc1n2CCCC1)c1ccc(S(=O)(=O)NCCO)cc1N1CCC2(CC1)CC2 [Compound 39] | > 6.70 | 7.12
O=C(Nc1cccn2c3c(nc12)CCCCC3)c1ccc(NS(=O)(=O)CCO)cc1N1CCC2(CC1)CC2 [Compound 29] | > 6.70 | 7.16
O=C(Nc1cc2c(c(N3CCOCC3)c1)OCC2)c1ccc(NS(=O)(=O)CCO)cc1N1CCC2(CC1)CC2 [Compound 51] | > 6.70 | 7.17
O=C(Nc1cc(N2CCC(F)(F)CC2)c2nccn2c1)c1ccc(NS(=O)(=O)CCO)cc1N1CCC2(CC1)CC2 [Compound 80] | > 6.70 | 7.62
CC1CCCCc2nc3c(NC(=O)c4ccc(NS(=O)(=O)CCO)cc4N4CCC5(CC4)CC5)cccc3n21 (centres unmarked) [Compound 68] | > 6.70 | 7.38
O=C(Nc1cccc2c1nc1n2CC2CCC1C2)c1ccc(NS(=O)(=O)CCO)cc1N1CCC2(CC1)CC2 (centres unmarked) [Compound 35] | > 6.70 | 7.06
O=C(Nc1cccc2c1nc1n2CC2CCC1C2(F)F)c1ccc(NS(=O)(=O)CCO)cc1N1CCC2(CC1)CC2 (centres unmarked) [Compound 74] | > 6.70 | 7.62
O=C(Nc1cccc2c1nc1n2CCC2CC12)c1ccc(NS(=O)(=O)CCO)cc1N1CCC2(CC1)CC2 (centres unmarked) [Compound 71] | > 6.70 | 7.03
O=C(Nc1cc2c(c(N3CCC(F)(F)CC3)n1)OCC2)c1ccc(NS(=O)(=O)CCO)cc1N1CCC2(CC1)CC2 [Compound 65] | > 6.30 | 7.78
O=C(Nc1cccc2c1nc1n2CCCC1)c1ccc(NS(=O)(=O)CCO)cc1N1CCC2(CC1)CC2 [Compound 12] | > 6.70 | 7.02
N#Cc1ccc(NC(=O)c2ccc(NS(=O)(=O)CCO)cc2N2CCC3(CC2)CC3)c2nc3n(c12)CCCC3 [Compound 50] | > 6.70 | 7.31
O=C(Nc1cc2ccnn2c(N2CCC(F)(F)CC2)n1)c1ccc(NS(=O)(=O)CCO)cc1N1CCC2(CC1)CC2 [Compound 109] | > 6.70 | 7.43
O=C(Nc1cccc2c1nc1n2CC2CCC1O2)c1ccc(NS(=O)(=O)CCO)cc1N1CCC2(CC1)CC2 (centres unmarked) [Compound 40] | > 6.70 | 7.44
O=C(Nc1cccc2c1cc1n2CCCCC1)c1ccc(NS(=O)(=O)CCO)cc1N1CCC2(CC1)CC2 [Compound 115] | > 6.70 | 7.64

From patent US20260364057A1, “AMIDE COMPOUND, AND COMPOSITION AND USE THEREOF” (SIMCERE ZAIMING PHARMACEUTICAL CO., LTD., priority 2022, published 2026)
